The values that follow come from ChEMBL document CHEMBL1147065, “Identification of an in vivo inhibitor of Bacillus anthracis spore germination” (J Biol Chem, 2007).

Active and inactive are the calls of the source. The rule behind the calls is not given here.

The target of assay [1] is Bacillus anthracis. The assay is described as follows: Inhibition of inosine and alanine-induced germination of Bacillus anthracis Sterne spore pre-incubated for 15 mins. Type of assay: functional, organism-based.
In assay [2] the test system is Bacillus anthracis. The assay can be described thus: Inhibition of cytopathic effect in Bacillus anthracis Sterne infected mouse RAW264.7 macrophage at 1 uM to 2 uM after 6 hrs by propidium iodide exclusion assay. Details: scale not given: the % may be the effect or the level left. Type of assay: functional. On the technique in general: Damage to the host cells serves as the signal in cytopathic effect assays.

For assay [3], the system named is Bacillus anthracis. The assay is described as follows: Inhibition of cytopathic effect in Bacillus anthracis Sterne infected mouse RAW264.7 macrophage assessed as lack of propidium iodide positive cells after 7 hrs. It counts as functional, organism-based.
For assay [4], the system named is Bacillus anthracis. The assay can be described thus: Inhibition of cytopathic effect in Bacillus anthracis Sterne infected mouse RAW264.7 macrophage after 6 hrs by propidium iodide exclusion assay. It counts as functional, organism-based.

One may read the Ki as a dissociation constant, usually derived from enzyme kinetics or from competition with a known ligand. `Nc1nc(=S)c2ncn([C@@H]3O[C@H](CO)[C@@H](O)[C@H]3O)c2[nH]1` [THIOGUANOSINE] gave a Ki at Bacillus anthracis [1] of 98 µM. This compound showed an Activity in the assay on Bacillus anthracis [2] of 88%. Besides, the result in the assay with Bacillus anthracis [3] was Active.
On Bacillus anthracis [1], `OC[C@H]1O[C@@H](n2cnc3c(O)nc(O)nc32)[C@H](O)[C@@H]1O` [XANTHOSINE] registered a Ki of 777 µM. Further, in the assay on Bacillus anthracis [4], the outcome was inactive.
Taken in the same sequence, the figures for `COc1nc(N)nc2c1ncn2[C@@H]1O[C@H](CO)[C@@H](O)[C@H]1O` were 34 µM and “inactive”.
Taken in the same sequence, the figures for `Nc1nc(N)c2ncn([C@@H]3O[C@H](CO)[C@@H](O)[C@H]3O)c2n1` were 68 µM and “inactive”.
On Bacillus anthracis [1], `CSc1ncnc2c1ncn2[C@@H]1O[C@H](CO)[C@@H](O)[C@H]1O` registered a Ki of 31 µM. Besides, the result with Bacillus anthracis [4] was inactive.
Consider `Nc1nc(Cl)c2ncn([C@@H]3O[C@H](CO)[C@@H](O)[C@H]3O)c2n1`, for which, on Bacillus anthracis [1], the Ki was determined as 87 µM. For the same compound, the result in the assay with Bacillus anthracis [4] was inactive.
